# Experiments:
# Type in all cases: cell-based
# microorganisms = assay: In vitro antimicrobial activity test, whole panel of test organisms; conditions: across the test organisms of TABLE 3
# Protocol: (§1) The activity of the compounds of the present invention was evaluated using an in vitro assay. Microorganisms were prepared from growth on agar media, in broth culture, or from thawed cryopreserved cultures. Fungal cultures were filtered to remove mycelial elements.
# (§2) Using Mueller Hinton II Broth, 0.9% saline or other appropriate media, a suspension of each culture was prepared and adjusted to a turbidity equivalent to that of a 0.5 McFarland Standard. (Cultures adjusted to the 0.5 McFarland Standard generally contain approximately 1.0×10^8 CFU/mL). The adjusted suspension for each culture was diluted 1:10 in the appropriate media so that the inoculum concentration approximates 1.0×10^7 CFU/mL.
# (§3) The antimicrobial agent to be tested was weighed and diluted with a volume of sterile distilled water calculated to yield the necessary starting concentration. Serial 1:2 dilutions of the antimicrobial agent in sterile distilled water were prepared (approximately 10-12 test concentrations comprise a reasonable experimental range). A known amount of each antimicrobial dilution was combined with an aliquot of agar medium calculated to yield the desired final antimicrobial test concentration and dispensed onto plates.
# (§4) The amount of antimicrobial agent to be weighed was determined using the following equation: […]
# (§5) Antimicrobial stock solutions were prepared at concentrations 5-10 times the highest concentration to be tested (routinely 1024 μg/mL). […] The stock solution was diluted to appropriate concentration using sterile water to form a working solution. The working solution was diluted two-fold, in sterile water, until the desired concentration is obtained.
# Mueller Hinton II agar was prepared as described by the manufacturer. Mueller Hinton II agar may be supplemented with 5% defibrinated sheep blood for testing streptococci. Agar was added to the serially diluted antimicrobial solution in each container. The solutions were mixed thoroughly and poured into petri dishes (about 25 mL/plate). The pH of the agar at 25° C. should be between 7.2 and 7.4. […]
# Acinetobacter baumannii = assay: In vitro antimicrobial activity, agar dilution MIC; conditions: test organism 26, Acinetobacter baumannii
# Protocol: as §1, §2, §3, §4, §5
# (§6) Mueller Hinton II agar was prepared as described by the manufacturer. Mueller Hinton II agar may be supplemented with 5% defibrinated sheep blood for testing streptococci. Agar was added to the serially diluted antimicrobial solution in each container. The solutions were mixed thoroughly and poured into petri dishes (about 25 mL/plate). The pH of the agar at 25° C. should be between 7.2 and 7.4.
# (§7) At least one inocula control plate was inoculated (agar medium without antimicrobial agent) from each seed plate before inoculating test plates. Test plates were inoculated starting at the lowest concentration and proceeding to the highest concentration. After all test plates were inoculated, an additional control plate (agar medium without antimicrobial agent) was inoculated. The plates were incubated in a non-CO2 incubator (or CO2 incubator depending on growth requirements); 18-24 hours at 32-35° C. was sufficient for most organisms.
# (§8) All inoculation points on the agar surface were examined for the presence of growth as compared to the inoculum control plates. The results were summarized and use to determine Minimal Inhibitory Concentrations (MICs): The MIC is the lowest concentration of the antimicrobial agent which prevents visible growth of the organism (negative score).
# Acinetobacter junii = assay: In vitro antimicrobial activity, agar dilution MIC
# Protocol: as §1, §2, §3, §4, §5, §6, §7, §8
# [1] = test system: Corynebacterium amycolatum; assay: In vitro antimicrobial activity, agar dilution MIC
# Protocol: as §1, §2, §3, §4, §5, §6, §7, §8
# Enterobacter hormaechei = assay: In vitro antimicrobial activity, agar dilution MIC; conditions: test organism 31, Enterobacter hormaechei
# Protocol: as §1, §2, §3, §4, §5, §6, §7, §8
# Enterococcus faecalis = assay: In vitro antimicrobial activity, agar dilution MIC
# Protocol: as §1, §2, §3, §4, §5, §6, §7, §8
# Escherichia coli = assay: In vitro antimicrobial activity, agar dilution MIC
# Protocol: as §1, §2, §3, §4, §5, §6, §7, §8
# MRSA = assay: In vitro antimicrobial activity, agar dilution MIC
# Protocol: as §1, §2, §3, §4, §5, §6, §7, §8
# MRSE = assay: In vitro antimicrobial activity, agar dilution MIC
# Protocol: as §1, §2, §3, §4, §5, §6, §7, §8
# MSSA = assay: In vitro antimicrobial activity, agar dilution MIC; conditions: test organism 6, MSSA
# Protocol: as §1, §2, §3, §4, §5, §6, §7, §8
# Morganella morganii = assay: In vitro antimicrobial activity, agar dilution MIC
# Protocol: as §1, §2, §3, §4, §5, §6, §7, §8
# Pseudomonas aeruginosa = assay: In vitro antimicrobial activity, agar dilution MIC
# Protocol: as §1, §2, §3, §4, §5, §6, §7, §8
# Serratia marcescens = assay: In vitro antimicrobial activity, agar dilution MIC
# Protocol: as §1, §2, §3, §4, §5, §6, §7, §8
# Staphylococcus aureus = assay: In vitro antimicrobial activity, agar dilution MIC
# Protocol: as §1, §2, §3, §4, §5, §6, §7, §8
# [2] = test system: Staphylococcus epidermidis; assay: In vitro antimicrobial activity, agar dilution MIC
# Protocol: as §1, §2, §3, §4, §5, §6, §7, §8
# [3] = test system: Staphylococcus haemolyticus; assay: In vitro antimicrobial activity, agar dilution MIC
# Protocol: as §1, §2, §3, §4, §5, §6, §7, §8
# [4] = test system: Stenotrophomonas maltophilia; assay: In vitro antimicrobial activity, agar dilution MIC
# Protocol: as §1, §2, §3, §4, §5, §6, §7, §8
# Streptococcus mitis = assay: In vitro antimicrobial activity, agar dilution MIC
# Protocol: as §1, §2, §3, §4, §5, §6, §7, §8
# Streptococcus pneumoniae = assay: In vitro antimicrobial activity, agar dilution MIC
# Protocol: as §1, §2, §3, §4, §5, §6, §7, §8
compound,measurement,setting,value
Nc1c(F)c(N2CC3CCCNC3C2)c(F)c2c1c(=O)c(C(=O)O)cn2C1CC1 (stereo not drawn) [Compound 3],antimicrobial activity compared to moxifloxacin (in words),microorganisms,showed increased antimicrobial activity against most microorganisms
moxifloxacin [reference compound],Minimal Inhibitory Concentration (MIC),Acinetobacter baumannii,≦0.25
same,Minimal Inhibitory Concentration (MIC),"Acinetobacter junii; test organism 27, Acinetobacter junii",≦0.25
same,Minimal Inhibitory Concentration (MIC),"Acinetobacter junii; test organism 28, Acinetobacter junii",0.25
same,Minimal Inhibitory Concentration (MIC),"Acinetobacter junii; test organism 29, Acinetobacter junii",>4
same,Minimal Inhibitory Concentration (MIC),"[1]; test organism 24, Corynebacterium amycolatum",0.03
same,Minimal Inhibitory Concentration (MIC),"[1]; test organism 25, Corynebacterium amycolatum",>4
same,Minimal Inhibitory Concentration (MIC),Enterobacter hormaechei,>4
same,Minimal Inhibitory Concentration (MIC),"Enterococcus faecalis; test organism 15, Enterococcus faecalis",0.5
same,Minimal Inhibitory Concentration (MIC),"Enterococcus faecalis; test organism 16, Enterococcus faecalis",≦0.25
same,Minimal Inhibitory Concentration (MIC),"Enterococcus faecalis; test organism 17, Enterococcus faecalis",>4
same,Minimal Inhibitory Concentration (MIC),"Enterococcus faecalis; test organism 18, Enterococcus faecalis",>2
same,Minimal Inhibitory Concentration (MIC),"Escherichia coli; test organism 32, Escherichia coli",0.125
same,Minimal Inhibitory Concentration (MIC),"Escherichia coli; test organism 33, Escherichia coli",≦0.25
same,Minimal Inhibitory Concentration (MIC),"Escherichia coli; test organism 34, Escherichia coli",>4
same,Minimal Inhibitory Concentration (MIC),"MRSA; test organism 3, MRSA",2
same,Minimal Inhibitory Concentration (MIC),"MRSA; test organism 4, MRSA",4
same,Minimal Inhibitory Concentration (MIC),"MRSA; test organism 5, MRSA",>2
same,Minimal Inhibitory Concentration (MIC),"MRSE; test organism 9, MRSE",>2
same,Minimal Inhibitory Concentration (MIC),"MRSE; test organism 10, MRSE",>2
same,Minimal Inhibitory Concentration (MIC),"MRSE; test organism 11, MRSE",>4
same,Minimal Inhibitory Concentration (MIC),MSSA,>4
same,Minimal Inhibitory Concentration (MIC),"Morganella morganii; test organism 35, Morganella morganii",0.5
same,Minimal Inhibitory Concentration (MIC),"Morganella morganii; test organism 36, Morganella morganii",4
same,Minimal Inhibitory Concentration (MIC),"Pseudomonas aeruginosa; test organism 37, Pseudomonas aeruginosa",>4
same,Minimal Inhibitory Concentration (MIC),"Pseudomonas aeruginosa; test organism 38, Pseudomonas aeruginosa",4
same,Minimal Inhibitory Concentration (MIC),"Serratia marcescens; test organism 39, Serratia marcescens",2
same,Minimal Inhibitory Concentration (MIC),"Serratia marcescens; test organism 40, Serratia marcescens",2
same,Minimal Inhibitory Concentration (MIC),"Staphylococcus aureus; test organism 1, Staphylococcus aureus",0.06
same,Minimal Inhibitory Concentration (MIC),"Staphylococcus aureus; test organism 2, Staphylococcus aureus",≦0.25
same,Minimal Inhibitory Concentration (MIC),"[2]; test organism 7, Staphylococcus epidermidis",0.06
same,Minimal Inhibitory Concentration (MIC),"[2]; test organism 8, Staphylococcus epidermidis",1
same,Minimal Inhibitory Concentration (MIC),"[3]; test organism 12, Staphylococcus haemolyticus",0.5
same,Minimal Inhibitory Concentration (MIC),"[3]; test organism 13, Staphylococcus haemolyticus",2
same,Minimal Inhibitory Concentration (MIC),"[3]; test organism 14, Staphylococcus haemolyticus",>4
same,Minimal Inhibitory Concentration (MIC),"[4]; test organism 41, Stenotrophomonas maltophilia",>4
same,Minimal Inhibitory Concentration (MIC),"[4]; test organism 42, Stenotrophomonas maltophilia",0.125
same,Minimal Inhibitory Concentration (MIC),"Streptococcus mitis; test organism 21, Streptococcus mitis",≦0.25
same,Minimal Inhibitory Concentration (MIC),"Streptococcus mitis; test organism 22, Streptococcus mitis",0.125
same,Minimal Inhibitory Concentration (MIC),"Streptococcus mitis; test organism 23, Streptococcus mitis",4
same,Minimal Inhibitory Concentration (MIC),"Streptococcus pneumoniae; test organism 19, Streptococcus pneumoniae",0.25
same,Minimal Inhibitory Concentration (MIC),"Streptococcus pneumoniae; test organism 20, Streptococcus pneumoniae",≦0.25

# — patent US20120108557A1, “FLUOROQUINOLONE DERIVATIVES FOR OPHTHALMIC APPLICATIONS” (ALCON RESEARCH, LTD., priority 2008, published 2012)
